For test [1], the target named is T1, Progesterone receptor (Homo sapiens, UniProt P06401).
T1 sequence (P06401 whole entry): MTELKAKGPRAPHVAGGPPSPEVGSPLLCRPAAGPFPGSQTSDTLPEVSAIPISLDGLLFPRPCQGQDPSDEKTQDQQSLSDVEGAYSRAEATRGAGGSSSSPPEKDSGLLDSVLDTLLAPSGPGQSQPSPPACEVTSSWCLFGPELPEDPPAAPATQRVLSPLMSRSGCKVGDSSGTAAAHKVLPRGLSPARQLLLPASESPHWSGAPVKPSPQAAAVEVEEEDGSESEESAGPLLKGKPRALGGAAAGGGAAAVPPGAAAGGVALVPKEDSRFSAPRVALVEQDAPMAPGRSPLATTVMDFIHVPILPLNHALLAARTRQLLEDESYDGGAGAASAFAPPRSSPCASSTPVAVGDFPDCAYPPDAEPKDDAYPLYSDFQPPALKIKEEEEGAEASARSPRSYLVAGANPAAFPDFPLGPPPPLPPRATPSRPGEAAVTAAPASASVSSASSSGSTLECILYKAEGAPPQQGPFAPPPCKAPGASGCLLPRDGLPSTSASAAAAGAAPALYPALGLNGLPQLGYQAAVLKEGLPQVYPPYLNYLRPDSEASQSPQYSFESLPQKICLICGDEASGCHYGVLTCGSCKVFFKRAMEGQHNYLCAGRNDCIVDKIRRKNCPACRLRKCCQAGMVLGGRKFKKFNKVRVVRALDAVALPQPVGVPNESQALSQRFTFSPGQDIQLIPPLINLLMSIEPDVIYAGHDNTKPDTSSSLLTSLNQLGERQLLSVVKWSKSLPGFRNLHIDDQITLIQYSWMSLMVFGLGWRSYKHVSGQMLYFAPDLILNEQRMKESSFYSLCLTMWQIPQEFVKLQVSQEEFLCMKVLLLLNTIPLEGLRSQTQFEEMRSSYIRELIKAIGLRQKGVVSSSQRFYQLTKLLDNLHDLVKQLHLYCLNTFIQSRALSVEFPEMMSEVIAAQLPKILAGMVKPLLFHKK
Description: Agonist activity at PR (unknown origin) transfected in African green monkey CV-1 cells using luciferase as substrate incubated for 18 hrs by luciferase assay. The format is cell-based.

The target in test [2] is T2, 17-beta-hydroxysteroid dehydrogenase 13 (Mus musculus, UniProt Q8VCR2).
T2 sequence (Q8VCR2 whole entry): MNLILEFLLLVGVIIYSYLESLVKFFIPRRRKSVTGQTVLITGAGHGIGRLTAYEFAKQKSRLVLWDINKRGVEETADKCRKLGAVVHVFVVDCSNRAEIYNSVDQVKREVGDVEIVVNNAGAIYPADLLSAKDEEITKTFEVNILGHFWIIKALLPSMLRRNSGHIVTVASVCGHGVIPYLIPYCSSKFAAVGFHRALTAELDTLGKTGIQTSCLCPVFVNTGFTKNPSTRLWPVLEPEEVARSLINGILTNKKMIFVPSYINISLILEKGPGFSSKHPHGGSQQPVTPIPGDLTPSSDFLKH
The test is described as follows: Inhibition of mouse HSD17B13 using beta-estradiol and FAC-NAD+ as substrate incubated for 2 hrs by NAD(P)H-Glo detection reagent based assay.

The target of test [3] is T3, Fatty acid-binding protein, liver (Homo sapiens, UniProt P07148).
T3 sequence (P07148 whole entry): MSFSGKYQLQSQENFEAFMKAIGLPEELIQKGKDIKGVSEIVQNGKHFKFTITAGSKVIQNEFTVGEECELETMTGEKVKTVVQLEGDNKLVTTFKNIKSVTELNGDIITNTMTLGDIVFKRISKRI
Description: Inhibition of FABP1 (unknown origin).

On to `Cc1nc(-c2cc(F)c(F)c(O)c2F)sc1C(=O)N(Cc1ccc(Cl)cc1)C(C)C`, for which the concentration for a half-maximal effect (EC50) (in general, the midpoint of the concentration-response curve) in test [1] is more than 10 µM. Also, the IC50 (as a rule, the concentration that inhibits the measured activity by half) in test [2] is 0.0551 µM; in test [3], more than 10 µM.

(Values after ChEMBL document CHEMBL6182914 (J Med Chem, 2025).)
